The source of these data is patent US20060257481A1, “Sustained release formulation and dosing schedule of leukotriene synthesis inhibitor for human therapy” (deCODE Genetics ehf., priority 2005, published 2006).

Where two headings read alike, the source gives them in different places.

One data set concerns MPO. In words: Study DG-031-203 open label dose ranging: plasma MPO. Format: in vivo, human. How it is done: The study also collected information on the dose-related effect of DG-031 on capacity for LTB4 production (ex vivo), plasma MPO, and serum-CRP. […] The pattern observed supported a concentration dependent pharmacologic effect of DG-031 on capacity for LTB4 production measured ex vivo. The effects on LTB4 production amounted to a 30% (p=0.016) and 25% (p=0.094) reduction with the 375 mg BID and 250 mg TID doses, respectively.

A further data set relates to LDL cholesterol. As to the kind of experiment: Study DG-031-201: LDL cholesterol. To be noted: highest dose; [4%,12%], p<0.001. In kind it is in vivo, human. How it is done: (§1) Patients who met the study eligebility criteria were enrolled and randomized into 3 different dose-level groups: (1) 64 patients on 250 mg/day therapy with DG-031 (250 mg q.d.), vs placebo; (2) 64 patients on 500 mg/day therapy with DG-031 (250 mg b.i.d.) vs placebo; and (3) 63 patients on 750 mg/day therapy with DG-031 (250 mg t.i.d.) vs placebo. […] All patients received 3 tablets per day. Treatment periods, 4 weeks in duration each, were separated by a 2-week washout period. The placebo tablets were identical in shape, color, form and taste to the active tablets except that they contained no active drug ingredients. Treatment with DG-031 or placebo was in addition to the subject's standard care, including all medications and treatment plan as prescribed by the subject's cardiologist prior to enrolment. A total of 191 subjects were enrolled, with 172 completing all 8 visits or 8 patients short of the target of 180 patients.
12% for MPO ([2%,21%], p=0.02) at the 750 mg/day dose of DG-031. […] Urine levels of LTE4 increased by 27% in response to the highest dose of DG-031 ([15%,40%], p<0.001). Significant correlation was observed between the change of LTB4 and MPO production (r=0.62 [0.51,0.70], p<0.001) within a period, also when considering only those taking drug where the range of these changes were larger. Correlation was also observed for these variables at baseline. […]

The subject of a further data set is MCP-1. In words: Study DG-031-201: MCP-1. In kind it is in vivo, human. Particulars: difference visit 2 to visit 5; 500 and 750 mg/day vs placebo cohort. The procedure: as §1
All data were analyzed according to a pre-established statistical analysis plan (SAP) and by intention-to-treat (ITT). Each arm of the study, as well as pooled sets (combining dose levels), was considered for the primary analysis. […] The difference between DG-031 and placebo treatment was the primary outcome, assessed separately for each of the biomarkers. […]

For data set [1] the following is noted: cited from earlier work; for Safety and tolerability: asthma patients.

With `O=C(O)[C@@H](c1ccc(OCc2ccc3ccccc3n2)cc1)C1CCCC1` [DG-031, (R)-(+)-alpha-cyclopentyl-4-(2-quinolinylmethoxy)-Benzeneacetic acid], the MPO in plasma is −37% (St. 203) in the data set with MPO (250 mg TID, St. 203, 6 hours, P < 0.001); −24% with MPO (375 mg BID, Study 203, 6 hours, NS); “No effect” in the data set with MPO (375 mg QD, Study 203, 6 hours). Further, the “Drop of plasma MPO levels” value with MPO (250 mg t.i.d., 6 hours after intake, [24%,47%], p<0.001) is recorded as 37%. For the same compound, the “Lowering of plasma MPO levels” value in the data set on MPO (375 mg BID, p=0.067) turned out to be 24%. Besides, the “Increase in LDL cholesterol” value in the data set with LDL cholesterol is recorded as 8%. For the same compound, in the data set with MCP-1, the “Carry-over effect, MCP-1” value worked out at 0.07. For the same compound, the Tolerability result in data set [1] (750 mg/day, previous phase I-II human studies in asthma) is reported as “well tolerated”. Further, the Safety and tolerability entry in data set [1] (total daily dose 500 mg, greater than 45-365 days) was “safe and well tolerated”; in data set [1] (total daily dose 250, 500, 750 and 1000 mg, 14 days) it was “safe and well tolerated”; in data set [1] (total daily doses 100, 200, 250, 500 and 1000 mg, 14-42 days), “safe and well tolerated”.
